Test results reported in US20140286945A1, “ENZYME INHIBITOR FOR CANCER TREATMENT” (The Curators of the University of Missouri, priority 2011, published 2014).

How the values were obtained:
MCF-7 cells = test: MCF-7 cell proliferation (MTT); format: cell-based; conditions: for response of MCF-7 cells to treatment: at low doses
Procedure: Refer to FIG. 11, which compares MCF-7 cell proliferation data among the treatments of BIBB515, Tamoxifen, Anastraozole, and various combinations thereof. During the experiments, the MCF-7 cells were treated with charcoal-stripped serum prior to treatment and grown with treatment repeated every 72 hrs. The cells were grown for 6 days, on day 7 the cell proliferation was determined by adding MTT and read at 570 nm according to the manufactures instructions. […] Thus, inhibiting the cholesterol pathway can inhibit the estrogen induced cell proliferation in MCF-7 cells.

CD-54 = test: Flow-cytometric analysis of CD-54 in Mec-2 cells; format: cell-based; conditions: flow cytometry, Fludarabine 10 μM, compared to control (FIG. 2)
Mec-2 cells [1] = test: MTT assay of cell viability/proliferation in Mec-2 cells; format: cell-based; conditions: for effect on cell proliferation, agents alone: 72 hours, BIBB515 at 10 μm (10^−5), Fludarabine 10 μM (FIG. 4)
Wac-3 cells = test: MTT assay of cell viability in Wac-3 cells; format: cell-based
[2] = rat, hamster, squirrel monkey and minipig models; due to inhibition of LDL production; cited from earlier work
CD-20 = test: Flow-cytometric analysis of CD-20 in Mec-2 cells; format: cell-based; conditions: flow cytometry, Fludarabine 10 μM, compared to control (FIG. 2)
patient CLL cells = test: Patient CLL cell viability; format: cell-based
Procedure: 1. Inhibition effect with BIBB515 alone and in combination with Fludarabine and Rituximab on patient cells. To assess the effect of treatment on cell viabilities, patient CLL cells were treated with BIBB515 alone and in combination with Fludarabine and Rituximab. Untreated CLL patient cell samples and samples of patients exposed to Fludarabine were used. The treatment was done 24 hrs after the cells plated in T25 flasks.

dog lymphoma cells = test: Dog lymphoma cell viability; format: cell-based; conditions: BIBB515 10 μM
Source text: Spontaneously occurring lymphoma in the dog has many of the same histopathological, molecular, and clinical features as non-Hodgkin's lymphoma (NHL) in humans. Most of the lymphoma subtypes recognized in humans have histopathologically identical counterparts in the dog and recent investigations show similar molecular characteristics in the two species. Likewise, spontaneous lymphoma in the dog has a similar clinical presentation, response to chemotherapy, and clinical progression compared to NHL in human patients. […] A canine lymphoma cell line, OSW, was established from the thoracic effusion of a dog with relapsed peripheral T-cell lymphoma. […] See, e.g., U.S. Pat. No. 7,897,150 and Kisseberth, W. C., et al., “A novel canine lymphoma cell line: a translational and comparative model for lymphoma research,” Leuk Res, 2007 31(12): p. 1709-20.

Mec-2 cells [3] = test: Membrane lipid content of Mec-2 cells by mass spectrometry; format: cell-based; conditions: 24 hrs, 10^−5 M; for some diacyl phosphatidylcholine species: versus DMSO controls; for lysophosphatidylcholines (LPC): versus DMSO controls (FIG. 19); for levels of phosphatidylcholines (PC): versus DMSO controls (FIG. 20); for levels of glycosphingolipids/dihydroglycosphingolipids: versus DMSO controls (FIG. 21); for levels of ether-linked phosphatidylcholines: versus DMSO controls (FIG. 22)
Procedure: Lipids were extracted by the following chloroform and methanol method. To 0.8 parts cells in aqueous solution, 1 part chloroform and 2 parts methanol was added and shaken well, then another 1 part chloroform and 1 part water added and shaken. The mixture was then centrifuged at low speeds for 5-10 min. and the lower layer removed. One part chloroform was added 3 times, shaken and centrifuged to again remove the lower layer. The layers were then combined, washed with KCl and then water. The extracted lipids from Mec-2 cells were vacuum dried after 24 hrs. of treatment with BIBB(10^−5 M) and YM(10^−5 M). Controls were treated with DMSO.
Samples were analyzed by mass spectrometry by the Kansas Lipidomics Research Center (KLRC) and identified and quantified by comparison against standard molecular weights of lipids. Each sample was loaded, vaporized, and ionized by electron beam; ions electromagnetically separated according to mass-to-charge ratio (m/z) were detected, and the ion signal processed into mass spectra.
Compounds were identified based on m/z of the intact ion and the mass of one fragment formed in the mass spectrometer: typically, for polar lipids, a head group fragment; for sphingolipids, a fragment characteristic of the long-chain base or sugar(s); for neutral lipids and for specialized analyses, often an acyl fragment. Quantities were reported as normalized signal/(tissue metric nanomole/3 million cells) against internal standards added in known amounts, usually with an adjustment for variation in response with m/z. Thus, quantities reported as normalized signal/(tissue metric) for diacyl or monoacyl phospholipids can be considered to be equal to nmol/(tis sue metric).

Raji cells = test: Raji (Burkitt lymphoma) cell viability at 72 hours; format: cell-based
Procedure: 1. Inhibition on cell viability of Raji after treatments with BIBB515 alone and in combination with Fludarabine. Burkitt lymphoma is a highly aggressive lymphoma, and Raji cells are sensitive to Fludarabine treatment at 10 μM concentration. […] Fludarabine was used at 5 μM concentration.
2. Inhibition on cell viability of Raji after treatments with Terbinafine alone and in combination with Fludarabine. […] The preferred cholesterol concentration range may also various between different cancer types.

Mec-2 cells [4] = test: Confocal microscopic analysis of glycosphingolipid density in Mec-2 cells; format: cell-based; conditions: confocal microscopy, relative to control, TAK-475 at 10 μM, data not shown
Procedure: Mec-2 cells were treated with BIBB515, YM-53601, or 10 μM of TAK-475 and imaged by confocal miscrscope. […] This would explain why rituximab is of limited or no efficacy in Mec-2 and Wac-3 cells, and provides a rationale for the efficacy of combination treatment with rituximab and a cholesterol biosynthetic pathway inhibitor.

Mec-2 cells [5] = conditions: 10 µM
[6] = test system: multiple myeloma cell line U226B1; test: Multiple myeloma cell line proliferation; format: cell-based; conditions: Ro-48-8071 alone (FIG. 12)
Mec-2 cells [7] = test: Flow cytometry of glycosphingolipids in Mec-2 cells; format: cell-based; conditions: data not shown
[8] = 10 μM YM-53601, 10 μg/mL alemtuzumab

Compound: CC(C)(C#N)c1cc(Cn2cncn2)cc(C(C)(C)C#N)c1 [Anastrazole]
- response of MCF-7 cells to treatment (MCF-7 cells): resistant

Compound: O=C(c1ccc(Cl)cc1)N1CCC(=Cc2ccc(C3=NCCO3)cc2)CC1 [BIBB515]
- CD-54 cell surface expression (CD-54): maintained at the similar level
- effect on cell proliferation, agents alone (Mec-2 cells [1]): able to inhibit cell proliferation
- sensitization of cells to Rituximab treatment (Wac-3 cells; BIBB515 study (FIG. 8)): sensitizes the Wac-3 cells to Rituximab treatment
- lipid lowering [2]: lower lipids
- CD-20 cell surface expression (CD-20): increased CD-20 cell surface expression
- effect on cell viability (patient CLL cells; BIBB515 study): reducing the cell viability moderately
- cell viability (dog lymphoma cells; Chlorambucil 100 nM (FIG. 16)): reducing the cell viability somewhat
- cell viability (dog lymphoma cells; lomustine 100 nM (FIG. 15)): reducing the cell viability somewhat
- some diacyl phosphatidylcholine species (Mec-2 cells [3]): reduce
- lysophosphatidylcholines (LPC) (Mec-2 cells [3]): reduce
- levels of phosphatidylcholines (PC) (Mec-2 cells [3]): increase
- levels of glycosphingolipids/dihydroglycosphingolipids (Mec-2 cells [3]): increase
- levels of ether-linked phosphatidylcholines (Mec-2 cells [3]): increase
- Raji cell proliferation (Raji cells; BIBB515 various concentrations, even at 10^−7, Fludarabine 5 μM (FIG. 9)): reduced
- glycosphingolipids and thus lipid raft density (Mec-2 cells [4]): increase
- viability (Mec-2 cells [5]): 65%
- sensitization of MCF-7 cells (MCF-7 cells; FIG. 11): sensitized
- proliferation of cells with estrogen (MCF-7 cells; MCF-7, charcoal-stripped serum, 6 days, MTT on day 7 (FIG. 11)): blocked
- cell death in MCF-7 cells (MCF-7 cells; relatively low doses of Tamoxifen or Anastrazole): induces cell death

Compound: Nc1nc(F)nc2c1ncn2[C@@H]1O[C@H](CO)[C@@H](O)[C@@H]1O [Fludarabine]
- viability (Mec-2 cells [5]): 82%

Compound: C=CCN(C)CCCCCCOc1ccc(C(=O)c2ccc(Br)cc2)c(F)c1 [Ro-48-8071]
- concentration giving the highest inhibition (dose dependent sensitivity) (Mec-2 cells [1]; Ro-48-8071 alone (FIG. 6)): 30 µM
- effect on cell proliferation (Mec-2 cells [1]; Ro-48-8071 study, Fludarabine 10 μM (FIG. 6)): inhibits Mec-2 cell proliferation significantly
- lipid lowering [2]: lower lipids
- cell viability (patient CLL cells; Ro-48-8071 study, control over 80%): about 65%
- cell proliferation [6]: provides reduction on cell proliferation

Compound: CC/C(=C(\c1ccccc1)c1ccc(OCCN(C)C)cc1)c1ccccc1 [Tamoxifen]
- response of MCF-7 cells to treatment (MCF-7 cells): resistant

Compound: CN(C/C=C/C#CC(C)(C)C)Cc1cccc2ccccc12 [Terbinafine, terbinafine]
- cell proliferation (MTT assay) (Mec-2 cells [1]; Terbinafine 60 μM, controls 0.5 (FIG. 5)): 0.16
- Raji cell proliferation (Raji cells; Terbinafine study (FIG. 10)): reduced

Compound: F/C(COc1ccc2c(c1)[nH]c1ccccc12)=C1/CN2CCC1CC2 [YM-53601]
- glycosphingolipids / lipid raft density by flow cytometry (Mec-2 cells [7]): increase was confirmed
- effect on cell proliferation (Mec-2 cells [1]; YM-53601 100 nM (FIG. 7)): reduces Mec-2 cell proliferation moderately
- effect on cellular proliferation (Wac-3 cells; [8]): effective at preventing cellular proliferation
- growth of cell population (Wac-3 cells; 10 μM YM-53601, 10 μg/mL alemtuzumab, control population more than tripled): did not achieve even a doubling
- some diacyl phosphatidylcholine species (Mec-2 cells [3]): reduce
- lysophosphatidylcholines (LPC) (Mec-2 cells [3]): reduce
- levels of phosphatidylcholines (PC) (Mec-2 cells [3]): increase
- levels of glycosphingolipids/dihydroglycosphingolipids (Mec-2 cells [3]): increase
- levels of ether-linked phosphatidylcholines (Mec-2 cells [3]): increase
- glycosphingolipids and thus lipid raft density (Mec-2 cells [4]): increase

Compound: Rituximab: an antiCD-20 monoclonal antibody that is in use in clinics
- effect on cell proliferation, agents alone (Mec-2 cells [1]): resistant
- effect on cellular proliferation (Wac-3 cells; 10 μM TAK-475, 5 μM Fludarabine, 10 μg/mL Rituximab (FIG. 14)): wholly ineffective

Compound: alemtuzumab: CD52-targeting monoclonal antibody
- effect on cellular proliferation (Wac-3 cells; [8]): ineffective at the concentration tested
